From patent publication US10233179B2, “Thiazoles and uses thereof” (AbbVie Inc., priority 2013, dated 2019) come the findings set out here.

pEC50: −log10 of the molar value. Where only a bound is given, the exact number is not on record here.

One data set deals with HEp-2 cells. Nature of the data set: Cytotoxicity assay (MTT) in parallel with the antiviral assay. The data set is classed as cell-based. As to the method:
HEp-2 cells and RSV (Group A, Long Strain) were obtained from the American Type Culture Collection (Manassas, Va.). Cytotoxicity of the compounds was determined in experiments done in parallel with the antiviral assays. To do this, 100 μL of assay medium was added to the wells of HEp-2 cells pretreated with 100 μL serially diluted compounds as described above. After 4 days of incubation, the viability of the cells was determined by the MTT assay in the same way as detailed in the “Antiviral Assay” method. Results were expressed as 50% toxicity dose (TD50) values. Compounds were tested to determine both their antiviral and toxicity to determine their therapeutic window. Determination of the EC50 and TD50 of these active compounds were repeated one additional time to confirm the window.

The test system of data set [1] is RSV (Group A, Long Strain). Nature of the data set: Antiviral cytopathic effect (CPE) protection assay, MTT readout. The data set is classed as cell-based. The settings on record: human respiratory syncytial virus, 96 h; HEp-2 cells, 0.2 MOI RSV, 4 days incubation, protection from CPE by MTT. Here is the method: HEp-2 cells and RSV (Group A, Long Strain) were obtained from the American Type Culture Collection (Manassas, Va.).
A cytopathic effect (CPE) protection assay was performed to determine the ability of a compound to protect the cells from viral infection and thus the CPE induced by viral infection. 96-Well plates were first seeded with 3×10^3 HEp-2 cells per well in Dulbecco's modified Eagle's medium (DMEM) containing 10% fetal bovine serum (FBS). One day after the cells were seeded, they were preincubated with serial dilutions of compounds prepared in 100 μL assay medium (DMEM mixed with F12 medium at a 1:1 ratio, supplemented with 2% FBS and 1 mM sodium pyruvate) for 1 hour at 37° C. 100 μL of assay medium containing 0.2 multiplicity of infection (MOI) of RSV was then added to each well of cells. In addition to wells containing infected cells incubated with compounds, each plate also contained replicates of two kinds of controls: (1) Virus control contained cells infected with 0.2 MOI of RSV in assay medium, (2) Uninfected cell control contained cells incubated with assay medium only. After 4 days of incubation at 37° C., the viability of cells was assessed using MTT (Thiazolyl blue tetrazolium bromide, Sigma). A stock solution of MTT, at a concentration of 4 mg/mL in phosphate-buffered saline, was added to all wells at 25 μL per well. Plates were further incubated for 4 hours, and each well was then treated with 50 μL of a solution containing 20% sodium dodecyl sulfate (SDS) and 0.02 N HCl. After an overnight incubation, the plates were measured on a BioTek® microtiter plate reader at wavelengths of 570 nm and 650 nm. The MTT detection is based on the fact that viable (uninfected) cells can reduce the tetrazolium salts into colored formazan products, which can then be quantitated by spectrometry. Based on the spectrometric absorbance of each sample, the percent of protection from CPE, which is an indicator of protection from viral infection, can be calculated for each compound and the 50% effective concentrations (EC50) can be calculated using a nonlinear regression curve fitting equation provided by the GraphPad Prism® 4 software.
Compounds were tested to determine both their antiviral and toxicity to determine their therapeutic window. Determination of the EC50 and TD50 of these active compounds were repeated one additional time to confirm the window.

Setting [2] is: uninfected HEp-2 cells, 4 days incubation, MTT viability.

The pEC50 is −log10 of the EC50, conventionally taken in molar units.

For `c1ccc(N(Cc2cccn2-c2nncs2)Cc2cccn2-c2nncs2)cc1` [Example 22, N,N-bis{[1-(1,3,4-thiadiazol-2-yl)-1H-pyrrol-2-yl]methyl}aniline], the “MTT TD50” value with HEp-2 cells (setting [2]) is greater than 32 µM. Also, the pEC50 in data set [1] is 4.55.

As to `FC1(F)CCC(CN(Cc2cccn2-c2nncs2)Cc2cccn2-c2nncs2)CC1` [Example 23, 1-(4,4-difluorocyclohexyl)-N,N-bis{[1-(1,3,4-thiadiazol-2-yl)-1H-pyrrol-2-yl]methyl}methanamine], the “MTT TD50” value in the data set with HEp-2 cells (setting [2]) was greater than 100 µM. The pEC50 in data set [1] was 5.62.

`c1cncc(C2(CCN(Cc3cccn3-c3nncs3)Cc3cccn3-c3nncs3)CC2)c1` [Example 24, 2-[1-(pyridin-3-yl)cyclopropyl]-N,N-bis{[1-(1,3,4-thiadiazol-2-yl)-1H-pyrrol-2-yl]methyl}ethanamine]: the “MTT TD50” value in the data set with HEp-2 cells (setting [2]) is greater than 100 µM. This compound gave a pEC50 in data set [1] of 5.54.

For `CC(Cc1cccs1)N(Cc1cccn1-c1nncs1)Cc1cccn1-c1nncs1` (centres unmarked) [Example 25, N,N-bis{[1-(1,3,4-thiadiazol-2-yl)-1H-pyrrol-2-yl]methyl}-1-(thiophen-2-yl)propan-2-amine], in the data set with HEp-2 cells (human, 4 days), the “MTT TD50” value worked out at 55 µM. This compound also gave a pEC50 in data set [1] of 5.12.

Consider `c1cncc(C2(CN(Cc3cccn3-c3nncs3)Cc3cccn3-c3nncs3)CC2)c1` [Example 26, 1-[1-(pyridin-3-yl)cyclopropyl]-N,N-bis{[1-(1,3,4-thiadiazol-2-yl)-1H-pyrrol-2-yl]methyl}methanamine], for which, in the data set on HEp-2 cells (setting [2]), the “MTT TD50” value was greater than 100 µM. The same compound showed a pEC50 in data set [1] of 5.96.

On to `c1cc(CN(CCC2(c3ccncc3)CC2)Cc2cccn2-c2nncs2)n(-c2nncs2)c1` [Example 27, 2-[1-(pyridin-4-yl)cyclopropyl]-N,N-bis{[1-(1,3,4-thiadiazol-2-yl)-1H-pyrrol-2-yl]methyl}ethanamine], for which the “MTT TD50” value with HEp-2 cells (human, 4 days) is greater than 32 µM. This compound also had a pEC50 in data set [1] of 6.09.

As for `N#Cc1cc(CN(Cc2cccn2-c2nncs2)Cc2cccn2-c2nncs2)cs1` [Example 28, 4-[(bis{[1-(1,3,4-thiadiazol-2-yl)-1H-pyrrol-2-yl]methyl}amino)methyl]thiophene-2-carbonitrile], the “MTT TD50” value in the data set on HEp-2 cells (setting [2]) was greater than 100 µM. For the same compound, in data set [1], the negative-log EC50 (pEC50) is 6.12.

Regarding `Clc1ccc(CN(Cc2cccn2-c2nccs2)Cc2cccn2-c2nccs2)c(Cl)c1` [Example 29, 1-(2,4-dichlorophenyl)-N,N-bis{[1-(1,3-thiazol-2-yl)-1H-pyrrol-2-yl]methyl}methanamine], the “MTT TD50” value in the data set with HEp-2 cells (setting [2]) is greater than 32 µM. In data set [1], the pEC50 is 6.49.

For the compound `COc1ccc(CN(Cc2cccn2-c2nccs2)Cc2cccn2-c2nccs2)c(OC)c1` [Example 30, 1-(2,4-dimethoxyphenyl)-N,N-bis{[1-(1,3-thiazol-2-yl)-1H-pyrrol-2-yl]methyl}methanamine], the “MTT TD50” value in the data set on HEp-2 cells (setting [2]) was 4.9 µM. Moreover, the pEC50 in data set [1] is 7.27.

Regarding `c1ccc(CN(Cc2cccn2-c2nccs2)Cc2cccn2-c2nccs2)cc1` [Example 31, 1-phenyl-N,N-bis{[1-(1,3-thiazol-2-yl)-1H-pyrrol-2-yl]methyl}methanamine], the “MTT TD50” value in the data set with HEp-2 cells (setting [2]) was found to be 5.4 µM. For the same compound, the pEC50 in data set [1] is 6.96.

Consider `c1cc(CN(Cc2cccn2-c2nccs2)CC2C[C@H]3CC[C@@H]2C3)n(-c2nccs2)c1` (stereo partly drawn) [Example 32, 1-[(1R,4S)-bicyclo[2.2.1]hept-2-yl]-N,N-bis{[1-(1,3-thiazol-2-yl)-1H-pyrrol-2-yl]methyl}methanamine], for which the “MTT TD50” value in the data set on HEp-2 cells (setting [2]) was 4.1 µM. In data set [1], this compound gave a pEC50 of 6.39.

For the compound `c1cc(CN(Cc2cccn2-c2nccs2)CC2CCCO2)n(-c2nccs2)c1` (centres unmarked) [Example 33, 1-(tetrahydrofuran-2-yl)-N,N-bis{[1-(1,3-thiazol-2-yl)-1H-pyrrol-2-yl]methyl}methanamine], the “MTT TD50” value with HEp-2 cells (setting [2]) was 16 µM. Moreover, the pEC50 in data set [1] is 5.34.

As for `FC(F)(F)c1ccc(CN(Cc2cccn2-c2nccs2)Cc2cccn2-c2nccs2)cc1` [Example 34, 1-[1-(1,3-thiazol-2-yl)-1H-pyrrol-2-yl]-N-{[1-(1,3-thiazol-2-yl)-1H-pyrrol-2-yl]methyl}-N-[4-(trifluoromethyl)benzyl]methanamine], the “MTT TD50” value with HEp-2 cells (setting [2]) came to 34 µM. In addition, in data set [1], the pEC50 was 5.47.

As for `Cc1cc(N(Cc2cccn2-c2nccs2)Cc2cccn2-c2nccs2)n(-c2ccccc2)n1` [Example 35, 3-methyl-1-phenyl-N,N-bis{[1-(1,3-thiazol-2-yl)-1H-pyrrol-2-yl]methyl}-1H-pyrazol-5-amine], in the data set on HEp-2 cells (setting [2]), the “MTT TD50” value is greater than 32 µM. For the same compound, the pEC50 in data set [1] was 7.33.

Take `Clc1cccc(Cl)c1CN(Cc1cccn1-c1nccs1)Cc1cccn1-c1nccs1` [Example 36, 1-(2,6-dichlorophenyl)-N,N-bis{[1-(1,3-thiazol-2-yl)-1H-pyrrol-2-yl]methyl}methanamine]: the “MTT TD50” value with HEp-2 cells (setting [2]) was 24 µM. The compound also showed a pEC50 in data set [1] of 7.48.

Regarding `Cc1ccccc1CN(Cc1cccn1-c1nccs1)Cc1cccn1-c1nccs1` [Example 37, 1-(2-methylphenyl)-N,N-bis{[1-(1,3-thiazol-2-yl)-1H-pyrrol-2-yl]methyl}methanamine], in the data set on HEp-2 cells (setting [2]), the “MTT TD50” value was found to be 7.1 µM. In data set [1], this compound had a pEC50 of 7.48.

Take `Clc1cnc(CN(Cc2cccn2-c2nccs2)Cc2cccn2-c2nccs2)c(Cl)c1` [Example 38, 1-(3,5-dichloropyridin-2-yl)-N,N-bis{[1-(1,3-thiazol-2-yl)-1H-pyrrol-2-yl]methyl}methanamine]: the “MTT TD50” value with HEp-2 cells (setting [2]) amounted to 11 µM. In data set [1], this compound showed a negative-log EC50 (pEC50) of 6.51.

For the compound `CC(C)CN(Cc1cccn1-c1nccs1)Cc1cccn1-c1nccs1` [Example 39, 2-methyl-N,N-bis{[1-(1,3-thiazol-2-yl)-1H-pyrrol-2-yl]methyl}propan-1-amine], the “MTT TD50” value in the data set on HEp-2 cells (setting [2]) is 8.3 µM. For the same compound, the pEC50 in data set [1] was 5.47.

As to `Fc1ccccc1CN(Cc1cccn1-c1nccs1)Cc1cccn1-c1nccs1` [Example 40, 1-(2-fluorophenyl)-N,N-bis{[1-(1,3-thiazol-2-yl)-1H-pyrrol-2-yl]methyl}methanamine], in the data set on HEp-2 cells (setting [2]), the “MTT TD50” value was 6.3 µM. For the same compound, in data set [1], the pEC50 is 7.74.

For the compound `Cc1c(C(C)N(Cc2cccn2-c2nccs2)Cc2ncc(-c3ccccc3)n2C)cnn1-c1cccc(F)c1` (centres unmarked) [Example 41, 1-[1-(3-fluorophenyl)-5-methyl-1H-pyrazol-4-yl]-N-[(1-methyl-5-phenyl-1H-imidazol-2-yl)methyl]-N-{[1-(1,3-thiazol-2-yl)-1H-pyrrol-2-yl]methyl}ethanamine], the “MTT TD50” value in the data set with HEp-2 cells (setting [2]) came to 5.6 µM. The pEC50 in data set [1] is less than 5.25.

For `Clc1ccc(CN(Cc2cccn2-c2nncs2)Cc2cccn2-c2nncs2)c(Cl)c1` [Example 42, 1-(2,4-dichlorophenyl)-N,N-bis{[1-(1,3,4-thiadiazol-2-yl)-1H-pyrrol-2-yl]methyl}methanamine], the “MTT TD50” value with HEp-2 cells (setting [2]) is 32 µM. The compound further showed a pEC50 in data set [1] of less than 4.49.

For the compound `Cc1cc(N(Cc2cccn2-c2nncs2)Cc2cccn2-c2nncs2)n(-c2ccc(F)cc2)n1` [Example 43, 1-(4-fluorophenyl)-3-methyl-N,N-bis{[1-(1,3,4-thiadiazol-2-yl)-1H-pyrrol-2-yl]methyl}-1H-pyrazol-5-amine], in the data set on HEp-2 cells (setting [2]), the “MTT TD50” value was greater than 32 µM. In data set [1], this compound gave a pEC50 of less than 4.49.
